Experiment [1] addresses T1, B-RAF V600E (Homo sapiens, UniProt P15056, V600E).
T1 construct: expressed in transfected cells; host or cells: T-Rex 293 cells (Invitrogen #R71007)
The experiment in a line: Target protein degradation, assay A: T-Rex 293 cells, HA-B-RAF_V600E, 96 well format. In kind it is cell-based. Particulars: T-Rex 293 HA-B-RAF_V600E cells, 24 hours, Examples 1-82. As to the method:
A. T-Rex 293 Cells (96 well format)
T-Rex 293 cells were purchased from Invitrogen (#R71007), and stably transfected with a pcDNA4/TO_HA-B-RAF_V600E construct, using 400 ug Zeocin for selection. V600e cells are plated in ulbecco's Modified Eagle Medium (DMEM; Gibco #11965118) containing 10% fetal bovine serum (FBS; Gibco #16000044) and 1 ng/mL doxycycline (Selleckchem #4163) at a density of 5,000 cells/well in 50 μl on poly-D-lysine (PDL) coated, black clear bottom 96-well plates (Corning #354640) and incubated for 24 hours at 37° C. with 5% CO2. The following day 50 ul of tested compound was added at 2× concentration in DMEM with a final concentration ranging from 1 μM to 0.1 nM in 0.1% dimethylsulfoxide (DMSO), and incubated for 24 hours at 37° C. with 5% CO2. At the end of the experimental treatment, the media was flicked off and cells washed once with phosphate-buffered saline (PBS)++(PBS with CaCl and MgCl) and gently replacing with 200 μl PBS++ per well. The PBS++ was removed and 50 uL 4% paraformaldehyde (PFA; EMS #15710) in PBS++ was added, and incubate at room temperature for 15 minutes. Cells were washed once with PBS++ and 50 uL 0.1% Triton X-100 (Fisher #BP151-500) in PBS++ was added. Plate was incubate for 5 minutes at room temperature. Cells were was once with PBS++. Cells were blocked with 100 uL Licor blocking buffer (Licor #927-50000) for 1 hour at room temperature. Next, 50 uL of HA antibody (CST #3724) at 1:1000 in Licor blocking buffer was added, and the plate icubate overnight at 4° C. The plates were parafilmed to prevent evaporation. Plate was washed three times with 200 uL PBS++. Fifty microliters of HCS secondary antibody solution [1:1000 Hoechst (Invitrogen #H3570), 1:1000 phalloidin (Invitrogen #A22287) and 1:5000 Alexa fluor (Invitrogen #A11008)] was added and incubated for 1 hour. Plate was wash three times with 200 uL PBS++, and imaged on a high content reader (ImageXpress Micro XLS, Molecular Devices).
(§1) The concentration of an exemplary compound that leads to half maximal degradation (DC50) as well as the maximum degradation observed (Dmax, conventionally expressed as a percentage of control) is shown below in Table 2.

In experiment [2] the target is T2, B-RAF G466V (Homo sapiens, UniProt P15056, G466V).
T2 construct: expressed in transfected cells; host or cells: T-Rex 293 cells (Invitrogen #R71007)
The experiment in a line: Target protein degradation, assay B: T-Rex 293 cells, HA-B-RAF_G466V, 96 well format. It is filed as cell-based. Conditions: T-Rex 293 HA-B-RAF_G466V cells, 24 hours, Examples 1-82. As to the method:
B. T-Rex 293 Cells (96 Well Format)
T-Rex 293 cells were purchased from Invitrogen (#R71007), and stably transfected with a pcDNA4/TO_HA-B-RAF_G466V construct, using 400 ug Zeocin for selection. G466V cells are plated in ulbecco's Modified Eagle Medium (DMEM; Gibco #11965118) containing 10% fetal bovine serum (FBS; Gibco #16000044) and 0.75 ng/mL doxycycline (Selleckchem #4163) at a density of 5,000 cells/well in 50 μl on poly-D-lysine (PDL) coated, black clear bottom 96-well plates (Corning #354640) and incubated for 24 hours at 37° C. with 5% CO2. The following day 50 ul of tested compound was added at 2× concentration in DMEM with a final concentration ranging from 30 nM to 3 pM in 0.1% dimethylsulfoxide (DMSO), and incubated for 24 hours at 37° C. with 5% CO2. At the end of the experimental treatment, the media was flicked off and cells washed once with phosphate-buffered saline (PBS)++(PBS with CaCl and MgCl) and gently replacing with 200 μl PBS++ per well. The PBS++ was removed and 50 uL 4% paraformaldehyde (PFA; EMS #15710) in PBS++ was added, and incubate at room temperature for 15 minutes. Cells were washed once with PBS++ and 50 uL 0.1% Triton X-100 (Fisher #BP151-500) in PBS++ was added. Plate was incubate for 5 minutes at room temperature. Cells were was once with PBS++. Cells were blocked with 100 uL Licor blocking buffer (Licor #927-50000) for 1 hour at room temperature. Next, 50 uL of HA antibody (CST #3724) at 1:1000 in Licor blocking buffer was added, and the plate icubate overnight at 4° C. The plates were parafilmed to prevent evaporation. Plate was washed three times with 200 uL PBS++. Fifty microliters of HCS secondary antibody solution [1:1000 Hoechst (Invitrogen #H3570), 1:1000 phalloidin (Invitrogen #A22287) and 1:5000 Alexa fluor (Invitrogen #A11008)] was added and incubated for 1 hour. Plate was wash three times with 200 uL PBS++, and imaged on a high content reader (ImageXpress Micro XLS, Molecular Devices).
as §1

As usually defined, the DC50 is the midpoint of the concentration-degradation curve. Lower therefore signals a more potent degrader. The Dmax is the greatest extent of degradation seen.

T1 sequence (P15056 whole entry V600E): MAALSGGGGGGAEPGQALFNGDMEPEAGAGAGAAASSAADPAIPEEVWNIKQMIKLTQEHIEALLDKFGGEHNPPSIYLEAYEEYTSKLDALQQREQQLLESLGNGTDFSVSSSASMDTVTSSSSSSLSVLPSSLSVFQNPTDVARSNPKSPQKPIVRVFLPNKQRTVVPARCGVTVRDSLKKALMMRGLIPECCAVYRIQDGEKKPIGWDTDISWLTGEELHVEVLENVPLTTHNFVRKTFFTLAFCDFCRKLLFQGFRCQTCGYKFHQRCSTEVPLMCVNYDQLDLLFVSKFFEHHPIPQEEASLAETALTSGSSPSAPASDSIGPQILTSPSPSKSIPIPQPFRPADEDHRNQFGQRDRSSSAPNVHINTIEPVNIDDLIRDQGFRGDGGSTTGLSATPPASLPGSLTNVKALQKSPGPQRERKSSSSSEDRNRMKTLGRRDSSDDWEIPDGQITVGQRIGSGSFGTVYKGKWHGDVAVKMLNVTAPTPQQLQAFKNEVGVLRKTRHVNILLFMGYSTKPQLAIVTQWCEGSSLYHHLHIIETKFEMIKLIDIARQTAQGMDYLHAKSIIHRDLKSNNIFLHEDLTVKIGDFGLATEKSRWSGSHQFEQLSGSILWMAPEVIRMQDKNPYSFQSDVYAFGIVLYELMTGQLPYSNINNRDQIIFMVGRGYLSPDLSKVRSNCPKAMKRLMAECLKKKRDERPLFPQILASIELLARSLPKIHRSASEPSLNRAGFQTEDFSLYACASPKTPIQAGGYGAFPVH
T2 sequence (P15056 whole entry G466V): as the sequence (P15056 whole entry V600E) above, with G466V, E600V counted along it

For the compound `Cn1c(=O)n(C2CCC(=O)NC2=O)c2ccc(N3CCC(CN4CCN(c5ccc(-n6cnc7ccc(Oc8c(F)ccc(NS(=O)(=O)N9CC[C@@H](F)C9)c8C#N)cc7c6=O)cc5)CC4)CC3)cc21` (stereo partly drawn) [Example 78, (3R)—N-{2-cyano-3-[(3-{4-[4-({1-[1-(2,6-dioxopiperidin-3-yl)-3-methyl-2-oxo-2,3-dihydro-1H-1,3-benzodiazol-5-yl]piperidin-4-yl}methyl)piperazin-1-yl]phenyl}-4-oxo-3,4-dihydroquinazolin-6-yl)oxy]-4-fluorophenyl}-3-fluoropyrrolidine-1-sulfonamide], the DC50 fell in the range of 5 to 50 nM in experiment [1] and 1 to 10 nM in experiment [2]. In addition, the greatest degradation seen (Dmax) in experiment [1] and in experiment [2] was 35 to 70% each time.

In experiment [1], `N#Cc1c(NS(=O)(=O)N2CC[C@@H](F)C2)ccc(F)c1Oc1ccc2ncn(-c3ccc(N4CCN(CC5CN(c6ccc7c(c6)CN([C@H]6CCC(=O)NC6=O)C7=O)C5)CC4)cc3)c(=O)c2c1` [Example 76, (3R)—N-(2-cyano-3-{[3-(4-{4-[(1-{2-[(3S)-2,6-dioxopiperidin-3-yl]-1-oxo-2,3-dihydro-1H-isoindol-5-yl}azetidin-3-yl)methyl]piperazin-1-yl}phenyl)-4-oxo-3,4-dihydroquinazolin-6-yl]oxy}-4-fluorophenyl)-3-fluoropyrrolidine-1-sulfonamide] had a DC50 of 5 to 50 nM and a maximal degradation (Dmax) of 35 to 70%. Moreover, in experiment [2], the half-maximal degradation concentration (DC50) lay in the range of 1 to 10 nM and the maximal degradation (Dmax) was no more than 35%.

`N#Cc1c(NS(=O)(=O)N2CC[C@@H](F)C2)ccc(F)c1Oc1ccc2ncn(C3CCN(CC4CCN(c5ccc6c(c5)CN(C5CCC(=O)NC5=O)C6=O)CC4)CC3)c(=O)c2c1` (stereo partly drawn) [Example 6, (3R)-N-[2-cyano-3-({3-[1-({1-[2-(2,6-dioxopiperidin-3-yl)-1-oxo-2,3-dihydro-1H-isoindol-5-yl]piperidin-4-yl}methyl)piperidin-4-yl]-4-oxo-3,4-dihydroquinazolin-6-yl}oxy)-4-fluorophenyl]-3-fluoropyrrolidine-1-sulfonamide] came in with a DC50 in experiment [1] greater than 500 nM. In experiment [2], this compound registered a DC50 of no more than 1 nM and a Dmax of no more than 35%.

In experiment [1], `N#Cc1c(NS(=O)(=O)N2CC[C@@H](F)C2)ccc(F)c1Oc1ccc2ncn(C3CCN(CCN4CCN(c5ccc6c(c5)CN(C5CCC(=O)NC5=O)C6=O)CC4)CC3)c(=O)c2c1` (stereo partly drawn) [Example 7, (3R)-N-[2-cyano-3-({3-[1-(2-{4-[2-(2,6-dioxopiperidin-3-yl)-1-oxo-2,3-dihydro-1H-isoindol-5-yl]piperazin-1-yl}ethyl)piperidin-4-yl]-4-oxo-3,4-dihydroquinazolin-6-yl}oxy)-4-fluorophenyl]-3-fluoropyrrolidine-1-sulfonamide] came in with a DC50 greater than 500 nM and a Dmax of 35 to 70%. In experiment [2], this compound returned a half-maximal degradation concentration (DC50) of 10 to 30 nM and a Dmax of 35 to 70%.

Take `N#Cc1c(NS(=O)(=O)N2CC[C@@H](F)C2)ccc(F)c1Oc1ccc2ncn(-c3ccc(N4CCC(OC5CCN(c6ccc7c(c6)CN(C6CCC(=O)NC6=O)C7=O)CC5)CC4)cc3)c(=O)c2c1` (stereo partly drawn) [Example 82, (3R)—N-{2-cyano-3-[(3-{4-[4-({1-[2-(2,6-dioxopiperidin-3-yl)-1-oxo-2,3-dihydro-1H-isoindol-5-yl]piperidin-4-yl}oxy)piperidin-1-yl]phenyl}-4-oxo-3,4-dihydroquinazolin-6-yl)oxy]-4-fluorophenyl}-3-fluoropyrrolidine-1-sulfonamide]: in experiment [1], the DC50 was 50 to 500 nM and the Dmax lay in the range of 35 to 70%. In experiment [2], the DC50 lay within 1 to 10 nM and the Dmax was no more than 35%.

With `N#Cc1c(NS(=O)(=O)N2CC[C@@H](F)C2)ccc(F)c1Oc1ccc2ncn(-c3ccc(N4CCN(CC5CCN(c6ccc7c(c6)CN(C6CCC(=O)NC6=O)C7=O)CC5)CC4)nc3)c(=O)c2c1` (stereo partly drawn) [Example 3, (3R)—N-[2-cyano-3-[3-[6-[4-[[1-[2-(2,6-dioxo-3-piperidyl)-1-oxo-isoindolin-5-yl]-4-piperidyl]methyl]piperazin-1-yl]-3-pyridyl]-4-oxo-quinazolin-6-yl]oxy-4-fluoro-phenyl]-3-fluoro-pyrrolidine-1-sulfonamide], in experiment [1], the 50% degradation concentration (DC50) was 50 to 500 nM and the Dmax is no more than 35%. In experiment [2], this compound gave a DC50 of 1 to 10 nM and a maximal degradation (Dmax) of 35 to 70%.

In experiment [1], `N#Cc1c(NS(=O)(=O)N2CC[C@@H](F)C2)ccc(F)c1Oc1ccc2ncn(-c3ccc(N4CCN(C(=O)CC5(O)CCN(c6ccc(C7CCC(=O)NC7=O)cc6F)CC5)CC4)cc3)c(=O)c2c1` (stereo partly drawn) [Example 66, (3R)-N-{2-cyano-3-[(3-(4-[4-(2-{1-[4-(2,6-dioxopiperidin-3-yl)-2-fluorophenyl]-4-hydroxypiperidin-4-yl}acetyl)piperazin-1-yl]phenyl}-4-oxo-3,4-dihydroquinazolin-6-yl)oxy]-4-fluorophenyl}-3-fluoropyrrolidine-1-sulfonamide] gave a DC50 of 50 to 500 nM and a maximal degradation (Dmax) of 35 to 70%. Moreover, in experiment [2], the DC50 is greater than 30 nM.

In experiment [1], `N#Cc1c(NS(=O)(=O)N2CC[C@@H](F)C2)ccc(F)c1Oc1ccc2ncn(-c3ccc(N4CCN(CC5CN(c6ccc7c(c6)CN(C6CCC(=O)NC6=O)C7=O)C5)CC4)cc3)c(=O)c2c1` (stereo partly drawn) [Example 2, (3R)—N-{2-cyano-3-[(3-{4-[4-({1-[2-(2,6-dioxopiperidin-3-yl)-1-oxo-2,3-dihydro-1H-isoindol-5-yl]azetidin-3-yl}methyl)piperazin-1-yl]phenyl}-4-oxo-3,4-dihydroquinazolin-6-yl)oxy]-4-fluorophenyl}-3-fluoropyrrolidine-1-sulfonamide] gave a 50% degradation concentration (DC50) of 50 to 500 nM and a Dmax of no more than 35%. For the same compound, in experiment [2], the half-maximal degradation concentration (DC50) was no more than 1 nM and the Dmax was 35 to 70%.

For the compound `N#Cc1c(NS(=O)(=O)N2CC[C@@H](F)C2)ccc(F)c1Oc1ccc2ncn(-c3ccc(N4CCN(CC5CCN(c6ccc(F)c(C(=O)NC7CCC(=O)NC7=O)c6)CC5)CC4)cc3)c(=O)c2c1` (stereo partly drawn) [Example 15, 5-(4-{[4-(4-{6-[2-cyano-6-fluoro-3-({[(3R)-3-fluoropyrrolidin-1-yl]sulfonyl}amino)phenoxy]-4-oxo-3,4-dihydroquinazolin-3-yl}phenyl)piperazin-1-yl]methyl}piperidin-1-yl)-N-(2,6-dioxopiperidin-3-yl)-2-fluorobenzamide], the values for the DC50 in experiment [1] and in experiment [2] were greater than 500 nM and greater than 30 nM, respectively.

Turning to `N#Cc1c(NS(=O)(=O)N2CC[C@@H](F)C2)ccc(F)c1Oc1ccc2ncn(-c3ccc(N4CCC(CN5CCC(c6ccc7c(c6F)CN(C6CCC(=O)NC6=O)C7=O)CC5)CC4)cc3)c(=O)c2c1` (stereo partly drawn) [Example 79, (3R)—N-{2-cyano-3-[(3-{4-[4-({4-[2-(2,6-dioxopiperidin-3-yl)-4-fluoro-1-oxo-2,3-dihydro-1H-isoindol-5-yl]piperidin-1-yl}methyl)piperidin-1-yl]phenyl}-4-oxo-3,4-dihydroquinazolin-6-yl)oxy]-4-fluorophenyl}-3-fluoropyrrolidine-1-sulfonamide], the 50% degradation concentration (DC50) in experiment [1] was 50 to 500 nM; in experiment [2], no more than 1 nM. The Dmax in experiment [1] and in experiment [2] was 35 to 70% each time.

(Values after US11957759B1, “Rapidly accelerated fibrosarcoma (RAF) degrading compounds and associated methods of use” (Arvinas Operations, Inc., priority 2022, dated 2024).)
